Source: US10626436B2, “Method of determining a compositional or functional characteristic of a cell culture media” (Valitacell Limited, priority 2015, dated 2020)

How the values were obtained:
[1] = tested on: reference CHO producer cell; experiment: Growth of reference CHO producer cell in static microplate culture with a cell stressor in four lots of the same cell culture media; type: cell-based; settings: stressor at an inhibitory concentration, each in triplicate, FIGS. 3-5
Protocol: FIG. 3: A reference CHO producer cell was grown in static microplate culture in the presence of cobalt chloride (CoCL2) at an inhibitory concentration and four different lots of the same cell culture media (each lot provided in triplicate).
FIG. 4: A reference CHO producer cell was grown in static microplate culture in the presence of menadione sodium bisulphite (MSB2) at an inhibitory concentration and four different lots of the same cell culture media (each lot provided in triplicate).
FIG. 5: A reference CHO producer cell was grown in static microplate culture in the presence of sodium lactate (NaLac) at an inhibitory concentration and four different lots of the same cell culture media (each lot provided in triplicate).

[2] = tested on: CHO cell line; experiment: Chemical fingerprinting: growth of CHO cells with cell stressors in two CD-CHO media lots (Presto Blue assay); type: cell-based; settings: CD-CHO media lot 66 vs lot 28; stressor at IC50 concentration, both MSB concentrations; FIG. 2; p<0.05 (Benjamini-Hockberg)
Protocol: Two different batches of “CD-CHO media” (Invitrogen, Paisley, UK) were obtained. A CHO cell line was grown in these […] media for 3 passages in 30 ml shake flask culture. “Presto Blue” (Invitrogen, Paisley, UK) was mixed 1:1 with CD-CHO media and 20 ul of this was added to each well. The plate was machine shaken and subsequently incubated for 30 minutes at 37 C in a static humidified incubator. After incubation the fluorescence of the wells was measured (excitation 535 nm emission 620 nm) using a fluoroskan ascent (Thermo-Fisher, Loughborough, UK) plate reader. […] It is clear here that there were significant differences in the cell growth in these different batches of media. This was clearly significant from day 4 onwards.
To test the effect this had on the chemical fingerprint, CHO cells were sub-cultured in CD-CHO in either lot number (66) or (28) for 3 passages. Chemical fingerprinting plates were set up in duplicate to determine the growth of cells in the presence of specific cellular stressors
Using the same CHO cell line used above for the growth studies, inhibitory dose 50 (IC50) concentrations of the above chemicals were identified through growth studies. […]
After this period the level of cell growth in the plates (i.e. in the presence and absence of chemicals as mentioned above) was measured using the “Presto Blue” assay as described above. […]

SMILES	growth response of the cell in different lots of the cell culture media in the presence of the stressor [1]	chemical response (cell growth relative to control well) compared between media lots [2]
CC1(S(=O)(=O)[O-])CC(=O)c2ccccc2C1=O.[Na+] (stereo not shown) [MSB, Menadione Sodium Bisulphite]	differences in growth response	clearly significant difference
[Cl][Co][Cl] [cobalt chloride, Cobalt chloride]	differences in growth response	–
CC(O)C(=O)[O-].[Na+] (stereo not shown) [sodium lactate, Sodium lactate]	differences in growth response	–
